For this assay, the target named is ClpP Enzyme. Format: biochemical. As to conditions: pH 8.
For `O=[N+]([O-])C(=C1Nc2ccccc2N1)C(Cl)=C(Cl)Cl` [(I)], the IC50 was found to be 23 µM.
In the case of `Clc1nc2ccccc2nc1N1CC1` [(II)] it was 19 µM; in that of `COc1ccc(/C=C(\C#N)c2nnc(/N=C/N(C)C)s2)cc1` [(III)], 25 µM.

Source of the values: US20070113300A1 (priority 2003, published 2007).
